Assay results taken from PMC10609741 (Pharmaceutics, 2023).
Converted amounts (≈) assume the structure as drawn.

Key:
Swiss albino mice [1] = test: Hot-plate test; type: in vivo; details: oral gavage; for pain inhibition: after 4 h
Description: (§1) The tests were performed using Swiss albino mice (25–30 g) which were divided in groups of eight mice each.
A hot-plate test was performed using a hot plate apparatus (DS 37; UgoBasile). The plate was set at 55 ± 0.1 °C and the response latency was noted as the interval between placing the animal on the plate and the occurrence of licking, shaking of the hind paws, or jumping off the surface. The latency of the analgesic response was measured at onset and at 1, 2, 3, and 4 h. The experiment cut-off time was set to 15 s to prevent tissue damage. For each group, the mean value (±S.E.) was reported.

[2] = Solubility of the ibuprofen derivative in water in the absence of β-CD (S0), UV 226 nm; type: physicochemical; details: water without β-CD, 25 °C, from calibration curves
Description: (§2) Stock solutions of β-CD were prepared in the concentration range of 0–15 mmol/L. From each stock solution 1 mL was taken and introduced into thermomixer flasks and 1 mL of suprasaturated solution of 4b, 4g, 4k, 4m was added and stirred at 600 rpm at 25 °C for 24 h, then at 60 °C for 24 h, and finally left to rest, at 25 °C, for another 24 h. UV absorbance was monitored within 190–320 nm on extracts freshly diluted with deionized water, and the maximum wavelength of 226 nm was selected for solubility determinations. All measurements were made in triplicate.

[3] = Phase solubility study with β-CD (apparent solubility constant K1:1); type: physicochemical; details: 1:1 complex, K1:1 = Slope/S0(1−Slope); β-CD 0–15 mmol/L
Description: as §2

Swiss albino mice [4] = test: Tail-flick test; type: in vivo; details: oral gavage
Description: as §1
The tail-flick test measures the reflex latency after exposure to a heating source, in order to evaluate the spinal response to pain. The tail flick unit (37360; UgoBasile, Gemonio, Italy) directs heat and stimulates the distal part of the mouse tail. The tail-flick latency is defined as the period before the mouse removed its tail from heat stimuli. The pain response at onset and at 1, 2, 3, and 4 h after administration of drugs, was noted. To prevent tissue lesions, the experiment cut-off time was set at 12 s. The pain inhibition (%) was calculated for each tested compound/β-CD complex and for each group the mean value (±S.E.) was reported.

Swiss albino mice [5] = test: Acetic acid writhing test; type: in vivo; details: acetic acid 1% i.p. 4 h after oral administration, writhes counted over 30 min
Description: as §1
To determine visceral pain, a writhing test was used. […] The mice were placed in a large glass cylinder and the number of abdominal writhes was recorded over a period of 30 min. The inhibition (%) of writhings was calculated to ascertain the analgesic effect. For each group, the mean value (±S.E.) was reported.

Swiss albino mice [6] = test: Paw formalin test; type: in vivo; details: formalin 5% 4 h after oral administration
Description: as §1
The analgesic and anti-inflammatory effects of the compounds were evaluated using formalin assay. […] The time (s) that the mice spent licking and/or biting the injected paw was recorded. Depending on the time value, the pain can be classified as neurogenic pain (0 to 5 min), interphase pain (5 to 15 min), and inflammatory pain (15 to 30 min). For each group, the mean value (±S.E.) was reported.

[7] = 1/20 of LD50, maximum after 2 h

Structure (SMILES)	pain inhibition (Swiss albino mice [1])	solubility [2]	apparent solubility constant (K1:1) in the presence of β-CD [3]	pain inhibition, maximum effect (Swiss albino mice [4]; [7])	inhibition of writhings (Swiss albino mice [5])	pain inhibition, maximum effect (Swiss albino mice [4]; 1/20 of LD50, maximum at 3 h)	time of maximum analgesic effect (Swiss albino mice [1]; 1/20 of LD50)	time mice spent licking the formalin-injected paw, first phase (Swiss albino mice [6]; first phase 0–5 min, neurogenic pain)	time mice spent licking the formalin-injected paw, second phase (Swiss albino mice [6]; second phase 15–30 min, inflammatory pain)
CC(C)Cc1ccc(C(C)C(=O)NN2C(=O)CSC2c2ccc(Cl)cc2)cc1 (centres unmarked) [4b]	58.93%	9.21 µg/mL (≈ 22.1 µM)	771.81 mol⁻¹	25.54%					
CC(C)Cc1ccc(C(C)C(=O)NN2C(=O)CSC2c2ccc([N+](=O)[O-])cc2)cc1 (centres unmarked) [4g]		15 µg/mL (≈ 35.1 µM)	723.50 mol⁻¹	24.90%					
CC(C)Cc1ccc(C(C)C(=O)NN2C(=O)CSC2c2ccc(C#N)cc2)cc1 (centres unmarked) [4k]	63.03%	22.8 µg/mL (≈ 55.9 µM)	713.6510 mol⁻¹		58.60%	32.01%			
CC(C)Cc1ccc(C(C)C(=O)NN2C(=O)CSC2c2ccc(N)cc2)cc1 (centres unmarked) [4m]		38.1 µg/mL (≈ 95.9 µM)				44.19%	3 h		
CC(C)Cc1ccc(C(C)C(=O)[O-])cc1.[Na+] (centres unmarked) [Ibu-Na, Ibuprofen sodium, reference compound]	47.22%				55.65%	45.86%		59.50 s	32 s
